Reference: patent publication US12378252B2, “Pyrrolopyrazole derivatives, preparation method thereof and application thereof in medicine” (SHANGHAI MEDICILON INC., priority 2019, dated 2025)
pIC50: −log10 of the molar value. Structures can show the parent of a compound that is named as a salt.

Biological target: T1, H+/K+ ATPase (Oryctolagus cuniculus, UniProt P27112)
T1 construct: The stomach tissue of the rabbit was separated; from tissue; host or cells: rabbit stomach (fundus) mucosa, membrane fraction obtained by differential and Ficoll centrifugation
T1 sequence (P27112 whole entry): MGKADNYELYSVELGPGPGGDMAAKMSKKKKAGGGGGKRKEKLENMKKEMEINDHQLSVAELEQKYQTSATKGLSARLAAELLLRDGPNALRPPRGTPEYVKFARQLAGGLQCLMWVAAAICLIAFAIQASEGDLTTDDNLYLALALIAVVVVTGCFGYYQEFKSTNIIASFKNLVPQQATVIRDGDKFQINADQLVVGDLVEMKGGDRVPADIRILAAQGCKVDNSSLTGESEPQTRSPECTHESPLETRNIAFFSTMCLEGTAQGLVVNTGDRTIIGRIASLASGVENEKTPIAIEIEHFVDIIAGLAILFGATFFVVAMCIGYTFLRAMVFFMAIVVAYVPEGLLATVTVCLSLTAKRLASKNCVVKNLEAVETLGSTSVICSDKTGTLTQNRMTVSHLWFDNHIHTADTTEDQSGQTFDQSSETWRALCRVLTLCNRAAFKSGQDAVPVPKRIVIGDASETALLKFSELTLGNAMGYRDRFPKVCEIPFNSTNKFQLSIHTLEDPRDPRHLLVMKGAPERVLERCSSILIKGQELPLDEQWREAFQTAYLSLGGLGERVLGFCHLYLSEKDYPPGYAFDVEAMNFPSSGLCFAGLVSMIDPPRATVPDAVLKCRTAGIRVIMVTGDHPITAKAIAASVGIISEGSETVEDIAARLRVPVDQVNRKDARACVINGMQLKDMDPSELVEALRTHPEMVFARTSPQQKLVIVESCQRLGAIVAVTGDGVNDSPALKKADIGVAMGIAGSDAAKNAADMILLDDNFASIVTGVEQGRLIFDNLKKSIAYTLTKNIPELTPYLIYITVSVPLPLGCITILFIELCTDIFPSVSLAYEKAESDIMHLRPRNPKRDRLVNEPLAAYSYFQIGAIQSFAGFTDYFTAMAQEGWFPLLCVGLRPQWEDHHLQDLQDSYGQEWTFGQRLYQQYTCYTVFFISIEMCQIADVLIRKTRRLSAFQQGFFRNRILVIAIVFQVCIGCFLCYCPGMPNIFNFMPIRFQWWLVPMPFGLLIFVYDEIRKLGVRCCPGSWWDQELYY
T1 sequence (P18597 whole entry partner): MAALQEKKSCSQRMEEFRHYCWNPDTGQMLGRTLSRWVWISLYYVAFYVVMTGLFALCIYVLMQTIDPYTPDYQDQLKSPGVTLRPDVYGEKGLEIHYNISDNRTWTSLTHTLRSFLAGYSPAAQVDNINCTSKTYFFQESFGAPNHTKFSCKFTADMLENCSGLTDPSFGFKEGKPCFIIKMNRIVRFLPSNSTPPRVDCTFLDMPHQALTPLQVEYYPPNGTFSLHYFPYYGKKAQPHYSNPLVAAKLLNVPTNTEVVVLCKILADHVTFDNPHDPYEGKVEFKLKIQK
Test: determination of compounds' inhibition of H+/K+ ATPase enzyme activity (malachite green, OD 620 nm)
Assay type: biochemical
Conditions: enzyme extracted from rabbit stomach tissue; pH 6.5; ATP 500 μM; 37° C.
Text: Test example: determination of compounds' inhibition of H^+/K+ATPase enzyme activity
The following experiment is used to determine the inhibitory effect of the compound of the present invention on the H^+/K+ATPase enzyme activity.
1. Experimental materials
Plate reader: SpectraMax M5 (MD)
Malachite Green (Sigma Aldrich, 213020-25G)
Ammonium molybdate (Sigma Aldrich, 277908-20G)
ATP (Sigma Aldrich, A1852-1VL).
Enzyme working solution: titrating the enzyme, diluting the enzyme with buffer 1, and during the reaction, taking 5 μl of the diluted solution into 50 μl reaction system.
ATP solution: 100 mM ATP was diluted to 5 mM with no K+buffer, and 5 μl of the diluted solution was added to the 50 μl reaction system, that is, the final concentration of ATP was 500 μM.
MLG color development liquid: 0.12% MLG, 7.5% ammonium molybdate, and […] Tween-20 was mixed as 100:25:2, and adding 15 μl of the mixture into each well during detection.
Buffer 1: 50 mM Tris-HCl pH 6.5, 5 mM magnesium chloride (magnesium chloride), 10 μM valinomycin (valinomycin).
Buffer 2: 50 mM Tris-HCl pH 6.5, 5 mM magnesium chloride (magnesium chloride), 10 μM valinomycin (valinomycin), 20 mM KCl.
Homogenization buffer: 10 mmol/L Tris-HCl, pH 6.8, 0.25M sucrose (sucrose), 1 mmol/LEDTA. 7.5% Ficoll layering solution: homogenization buffer+7.5% (W/W) 400 (Ficoll 400).
3.1. H^+/K^+ ATPase enzyme extraction
(1) The stomach tissue of the rabbit was separated, and the blood was washed with tap water, food residue.
(2) The fundus portion was thoroughly washed with pre-cooled NaCl solution to remove surface mucus.
(3) The stripped mucosa was filled into a sample bag or a 50 ml centrifuge tube, and quickly freezing in a liquid nitrogen tank.
(4) The tissue was removed, minced with surgical scissors, and a pre-cooled homogenization buffer (4 ml/g tissue) was added and homogenized in a tissue homogenizer for 2 to 10 minutes.
(5) After homogenization, if there were larger tissue particles, they could be removed by centrifugation (600 g, 10 min), and then the supernatant was transferred to a clean centrifuge tube. After centrifugation at 20000 g for 30 minutes, then the supernatant was transferred to a clean centrifuge tube at 100000 g for 90 minutes and the precipitate was collected.
(6) Resuspending the precipitate with homogenization buffer, blowing uniformly, adding 7.5% Ficoll layering solution at equal ratio, centrifuging at 100000 g for 90 minutes, and collecting the precipitate.
(7) Resuspending the precipitate with homogenization buffer, blowing uniformly, and the protein concentration was measured by Bradford. Freezing in tubes at −80° C. for later use.
3.2. H^+/K^+ ATPase activity experiment
(1) Adding 35 μl of reaction buffer to each experimental well, and then added 35 μl of buffer 1.
(2) Adding 5 μl buffer 1 containing 10% DMSO to the whole enzyme and buffer well.
(3) Adding 5 μl of 10× compound working solution to the compound well and mixing well.
(4) Adding 5 of buffer 1 to the buffer well.
(5) Adding 5 μl of 10× enzyme working solution to the remaining wells, mixing and incubating at 37° C. for 30 minutes.
(6) Adding 5 μl of 10XATP working solution to all experimental wells, and incubating at 37° C. for 20 min.
(7) Adding 15 μl MLG chromogenic solution to all experimental wells, and uniformly mixing and incubating at room temperature for 5-30 min.
(8) The reading number of 620 nm was detected by an M5 instrument.
The inhibition rate is calculated with the following formula: Inhibition rate (IC50)=[OD (sample well)−OD (full enzyme well containing potassium chloride)]/[(OD (full enzyme well containing potassium chloride)−(OD (full enzyme well without potassium chloride Enzyme hole)]×100%

| SMILES | pIC50 |
| --- | --- |
| CCCCOC(=O)c1cccc(Cn2nc3c(c2-c2ccccc2F)CN(C)C3)c1 [Example 2, 3-((3-(2-fluorophenyl)-5-methyl-5,6-dihydropyrrolo [3,4-c]pyrazole-2(4H)-yl)methyl)butyl benzoate] | 7.01 |
| CN1Cc2nn(Cc3cccc(C(=O)NC4CC4)c3)c(-c3ccccc3F)c2C1 [Example 4, N-cyclopropyl-3-((3-(2-fluorophenyl)-5-methyl-5,6-dihydropyrrolo[3,4-c]pyrazole-2(4H)-Yl)methyl)benzamide] | 6.27 |
| CN1Cc2nn(Cc3cccc(C(=O)OC(C)(C)C(N)=O)c3)c(-c3ccccc3F)c2C1 [Example 5, 1-amino-2-methyl-1-oxopropan-2-yl-3-((3-(2-fluorophenyl)-5-methyl-5,6-dihydropyrrolo [3,4-c]pyrazole-2(4H)-yl)methyl)benzoate] | 6.65 |
| Cc1ccccc1-c1c2c(nn1Cc1cccc(C(=O)OC(C)(C)C)c1)CN(C)C2 [Example 8, 3-((5-Methyl-3-(o-tolyl)-5,6-dihydropyrrolo[3,4-c]pyrazole-2(4H)-yl)methyl) benzene Tert-butyl formate] | 6.23 |

Stronger by pIC50, values ahead:

| pIC50 | SMILES |
| --- | --- |
| 7.04 | CCOC(=O)c1cccc(Cn2nc3c(c2-c2ccccc2F)CN(C)C3)c1 [Example 3, 3-((3-(2-fluorophenyl)-5-methyl-5,6-dihydropyrrolo[3,4-c]pyrazole-2(4H)-yl)methyl) ethyl benzoate] |
| 7.11 | COC(=O)c1cccc(Cn2nc3c(c2-c2ccccc2F)CN(C)C3)c1 [Example 1, 3-((3-(2-fluorophenyl)-5-methyl-5,6-dihydropyrrolo[3,4-c]pyrazole-2(4H)-yl)methyl)benzoic acid ester] |
| 7.21 | COC(=O)c1cccc(Cn2nc3c(c2-c2ccc(F)cc2F)CN(C)C3)c1 [Example 9, 3-((3-(2,4-Difluorophenyl)-5-methyl-5,6-dihydropyrrolo [3,4-c]pyrazole-2(4H)-yl) Methyl) methyl benzoate] |
| 7.41 | COC(=O)c1cc(Cn2nc3c(c2-c2ccccc2C)CN(C)C3)ccc1F [Example 7, 2-Fluoro-5-((5-methyl-3-(o-tolyl)-5,6-dihydropyrrole [3,4-c]pyrazole-2 (4H)-yl)methane Yl) methyl benzoate] |
| 7.44 | COC(=O)c1cccc(Cn2nc3c(c2-c2ccccc2C)CN(C)C3)c1 [Example 6, 3-((5-methyl-3-(o-tolyl)-5,6-dihydropyrrolo[3,4-c]pyrazole-2(4H)-yl)methyl) Methyl benzoate] |
